The subject of data set [1] is Mycobacterium tuberculosis. As to the kind of experiment: Antitubercular activity against Mycobacterium tuberculosis H37Rv by microplate alamar blue assay. Format: functional. (In general: Alamar Blue is a resazurin reagent that responds to reducing activity.)
For data set [2], the system named is Mycobacterium tuberculosis. As to the kind of experiment: Antitubercular activity against Mycobacterium tuberculosis infected in IFNgamma-deficient C57BL/6 mouse assessed bacterial load in spleen at 25 mg/kg administered once daily for 8 days measured 28 days post infection. It counts as functional.
Data set [3] has as its system Mycobacterium tuberculosis. As to the kind of experiment: Antitubercular activity against Mycobacterium tuberculosis infected in IFNgamma-deficient C57BL/6 mouse assessed bacterial load in lung at 25 mg/kg administered once daily for 8 days measured 28 days post infection. Format: functional.
Data set [4] deals with Escherichia coli. Nature of the data set: Antibacterial activity against Escherichia coli NCTC 10418 infected in po dosed CF mouse measured after 1 week. Format: functional. Particulars: NCTC 10418, po, 168 h.
The nature of data set [5]: Toxicity in po dosed CF mouse measured after 1 week. It counts as organism-based. The settings on record: in vivo.
In another data set the test system is Vibrio cholerae. Nature of the data set: Antibacterial activity against Vibrio cholerae by agar dilution method. Format: functional. For orientation: Agar dilution tests growth on a series of plates holding different concentrations.
A further data set concerns Citrobacter freundii. Nature of the data set: Antibacterial activity against Citrobacter freundii by agar dilution method. It counts as functional.
The test system of another data set is Klebsiella pneumoniae. Nature of the data set: Antibacterial activity against Klebsiella pneumoniae by agar dilution method. It counts as functional.
Another data set deals with Pseudomonas aeruginosa. Nature of the data set: Antibacterial activity against Pseudomonas aeruginosa by agar dilution method. It counts as functional.
For data set [6], the system named is Escherichia coli. As to the kind of experiment: Antibacterial activity against Escherichia coli by agar dilution method. It counts as functional.
A further data set deals with Salmonella typhi. Nature of the data set: Antibacterial activity against Salmonella typhi by agar dilution method. Format: functional, Salmonella enterica subsp. enterica serovar Typhi. Particulars: Salmonella enterica.
In another data set the test system is Shigella flexneri. As to the kind of experiment: Antibacterial activity against Shigella flexneri by agar dilution method. Format: functional.
Data set [7] concerns Staphylococcus epidermidis. As to the kind of experiment: Antibacterial activity against Staphylococcus epidermidis by agar dilution method. It counts as functional.
In another data set the test system is Staphylococcus aureus. Nature of the data set: Antibacterial activity against Staphylococcus aureus by agar dilution method. Format: functional.
Data set [8] concerns Mycobacterium tuberculosis. As to the kind of experiment: Antimycobacterial activity against Mycobacterium tuberculosis H37Rv ATCC 27294 by rapid direct susceptibility test. It counts as functional.
In data set [9] the test system is Mycobacterium tuberculosis. Nature of the data set: Antimycobacterial activity against Mycobacterium tuberculosis H37Rv after 3 to 7 days by rapid direct susceptibility test. Format: functional.
The test system of data set [10] is Mycolicibacterium smegmatis. Nature of the data set: Antimycobacterial activity against Mycobacterium smegmatis CMCC 93202 after 72 hrs by double dilution method. It counts as functional. Particulars: CMCC 93202, 72 h.

SMILES strings stand for the structures. Converted amounts (≈) assume the structure as drawn.

The term MIC denotes the lowest concentration found to suppress growth. The low end stands for inhibition by little substance, the high end for a need for much substance. For `COc1cc(Cc2cnc(/N=C3\C(=O)N(CN4CCN(c5cc6c(cc5F)c(=O)c(C(=O)O)cn6C5CC5)CC4)c4ccc(F)cc43)nc2N)cc(OC)c1OC`, in data set [1], the MIC stood at 0.78 µg/mL (≈ 0.999 µM). The Activity in [2] was 4.08 log10CFU; in data set [3], 5.26 log10CFU.

One may read the ED50 as the dose at which the effect has come halfway, by size or by number of responders. For orientation: LD50 means the dose at which mortality reaches 50%. Regarding `CCn1cc(C(=O)O)c(=O)c2cc(F)c(N3CCNCC3)cc21` [NORFLOXACIN], the ED50 in the data set with Escherichia coli [4] worked out at 6 mg/kg. For the same molecule, the LD50 at 168 h in [5] came to 4000 mg/kg.

As to `CCn1cc(C(=O)O)c(=O)c2cc(F)c(N3CCN(CN4C(=O)C(=O)c5cc(C)ccc54)C(C)C3)c(F)c21` (stereo not drawn), the MIC in the data set with Vibrio cholerae, with Citrobacter freundii, against Klebsiella pneumoniae, against Pseudomonas aeruginosa, against Escherichia coli [6] and against Salmonella typhi was 0.25 to 2.5 µg/mL (≈ 0.477 to 4.77 µM) throughout. Also, the MIC (against Shigella flexneri; in data set [7]; against Staphylococcus aureus) was 0.25 to 2.5 µg/mL (≈ 0.477 to 4.77 µM) in each case.

For the molecule `COc1c(N2C[C@@H]3CCCN[C@@H]3C2)c(F)cc2c(=O)c(C(=O)O)cn(C3CC3)c12` [MOXIFLOXACIN], the MIC in data set [8] was 0.1 to 1 µg/mL (≈ 0.249 to 2.49 µM); in data set [9], 0.1 µg/mL (≈ 0.249 µM); in data set [10], 0.1 to 1 µg/mL (≈ 0.249 to 2.49 µM).

For `NC[C@H]1O[C@H](O[C@H]2[C@H](O)[C@@H](O[C@H]3O[C@H](CO)[C@@H](O)[C@H](N)[C@H]3O)[C@H](N)C[C@@H]2N)[C@H](O)[C@@H](O)[C@@H]1O` [KANAMYCIN], in data set [1], the MIC was 5 µg/mL (≈ 10.3 µM).

In the case of `COc1cc(Cc2cnc(/N=C3\C(=O)N(CN4CCN(c5cc6c(cc5F)c(=O)c(C(=O)O)cn6C5CC5)CC4)c4ccc(C)cc43)nc2N)cc(OC)c1OC`, in [1], the MIC was in the range of 0.78 to 3.13 µg/mL (≈ 1 to 4.03 µM).

In data set [1], `COc1cc(Cc2cnc(/N=C3\C(=O)N(CN4CCN(c5c(F)cc6c(=O)c(C(=O)O)cn(C7CC7)c6c5OC)CC4C)c4ccc(C)cc43)nc2N)cc(OC)c1OC` (stereo not drawn) registered an MIC of 0.78 to 3.13 µg/mL (≈ 0.95 to 3.81 µM).

In the case of `CCn1cc(C(=O)O)c(=O)c2cc(F)c(N3CCN(CN4C(=O)/C(=N\c5ncc(Cc6cc(OC)c(OC)c(OC)c6)c(N)n5)c5cc(Cl)ccc54)C(C)C3)c(F)c21` (stereo not drawn), in data set [1], the MIC lay within 0.78 to 3.13 µg/mL (≈ 0.954 to 3.83 µM).

`COc1cc(Cc2cnc(/N=C3\C(=O)N(CN4CCN(c5c(F)cc6c(=O)c(C(=O)O)cn(C7CC7)c6c5OC)CC4C)c4ccc(F)cc43)nc2N)cc(OC)c1OC` (stereo not drawn) registered an MIC in [1] of 0.78 to 3.13 µg/mL (≈ 0.946 to 3.79 µM).

In turn, `COc1c(N2C[C@@H]3CCCN(Cc4cn(CCN5C(=O)C(=O)c6ccccc65)nn4)[C@@H]3C2)c(F)cc2c(=O)c(C(=O)O)cn(C3CC3)c12` registered an MIC in data set [9] of 0.1 to 0.78 µg/mL (≈ 0.153 to 1.19 µM).

The molecule `CCn1cc(C(=O)O)c(=O)c2cc(F)c(N3CCN(CN4C(=O)/C(=N\c5ncc(Cc6cc(OC)c(OC)c(OC)c6)c(N)n5)c5cc(C)ccc54)C(C)C3)c(F)c21` (stereo not drawn) had an MIC in data set [1] of 0.78 to 3.13 µg/mL (≈ 0.979 to 3.93 µM).

Molecule `NC(=O)N/N=C1/C(=O)N(CCCN2CCN(c3cc4c(cc3F)c(=O)c(C(=O)O)cn4C3CC3)CC2)c2ccccc21` showed an MIC in data set [9] of 0.1 to 64 µg/mL (≈ 0.174 to 111 µM).

In data set [9], `COc1c(N2C[C@@H]3CCCN(Cc4cn(CCN5C(=O)/C(=N/NC(N)=O)c6ccccc65)nn4)[C@@H]3C2)c(F)cc2c(=O)c(C(=O)O)cn(C3CC3)c12` registered an MIC of 0.1 to 0.78 µg/mL (≈ 0.14 to 1.09 µM).

In [9], `CCO/N=C1/C(=O)N(CCn2cc(CN3CCC[C@H]4CN(c5c(F)cc6c(=O)c(C(=O)O)cn(C7CC7)c6c5OC)C[C@H]43)nn2)c2ccccc21` came in with an MIC of 0.1 to 0.78 µg/mL (≈ 0.143 to 1.12 µM).

As to `COc1cc(Cc2cnc(/N=C3\C(=O)N(CN4CCN(c5c(F)cc6c(=O)c(C(=O)O)cn(C7CC7)c6c5OC)CC4C)c4ccc(Cl)cc43)nc2N)cc(OC)c1OC` (stereo not drawn), in data set [1], the minimum inhibitory concentration (MIC) is 0.78 to 3.13 µg/mL (≈ 0.927 to 3.72 µM).

For the molecule `CCn1cc(C(=O)O)c(=O)c2cc(F)c(N3CCNC(C)C3)c(F)c21` (stereo not drawn) [LOMEFLOXACIN], the MIC against Vibrio cholerae, with Citrobacter freundii, against Klebsiella pneumoniae, against Pseudomonas aeruginosa, with Escherichia coli [6] and in the data set on Salmonella typhi was 0.1 to 2.5 µg/mL (≈ 0.285 to 7.12 µM) throughout. The MIC (with Shigella flexneri; in [7]; against Staphylococcus aureus) was 0.1 to 2.5 µg/mL (≈ 0.285 to 7.12 µM) throughout.

As for `CC[C@@H](CO)NCCN[C@@H](CC)CO` [ETHAMBUTOL], the MIC in [1] is 1.88 µg/mL (≈ 9.2 µM).

Source of the values: ChEMBL document CHEMBL4382234, “Fluoroquinolone-isatin hybrids and their biological activities” (Eur J Med Chem, 2019).
